Results reported in the supplement of paper PMC10627819.

Assays:
B. subtilis 168 [1] = assay: Bliss interaction score (quartile over a dose matrix) (fitness difference); higher = more antagonism (negative = synergy)
Outline: (§1)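 Quartiles summarise the Bliss score over technical, biological and donor/recipient replicates, where the score is observed minus expected fitness under a product model. Expected fitness uses single-drug values inferred from combination data. Fitness is OD595 at entry into stationary phase over the plate's robust no-drug mean, capped at 1.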

S. aureus Newman = assay: as above
Outline: as §1

S. pneumoniae D39V = assay: as above
Outline: as §1

S. aureus DSM 20231 = assay: as above
Outline: as §1

B. subtilis 168 [2] = assay: fitness (endpoint OD595 vs no drug) (fraction); higher = more growth
Outline: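 Growth medium was TSB, LB Lennox or CY, and plates were kept at 37 °C. Inoculation was at OD595 0.01 in 384-well plates, at 30 µl per well or 55 µl for S. pneumoniae. OD595 was monitored every 30 min for 14 h and background-subtracted using the first reading. Fitness is the optical density on entering stationary phase divided by the robust mean of no-drug controls, with values capped at 1.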
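For Bliss interaction score (quartile over a dose matrix) in this document: first quartile when negative (synergy) and third quartile when positive (antagonism).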

CC[C@H]1OC(=O)[C@H](C)[C@@H](O[C@H]2C[C@@](C)(OC)[C@@H](O)[C@H](C)O2)[C@H](C)[C@@H](O[C@@H]2O[C@H](C)C[C@H](N(C)C)[C@H]2O)[C@](C)(O)C[C@@H](C)CN(C)[C@H](C)[C@@H](O)[C@]1(C)O [Azithromycin] + C[C@H]1COc2c(N3CCN(C)CC3)c(F)cc3c(=O)c(C(=O)O)cn1c23 [Levofloxacin]
Conditions	Bliss interaction score
B. subtilis 168 [1]	0.0413
S. aureus DSM 20231	0.0911
S. aureus Newman	0.0787
S. pneumoniae D39V	0.0528

fitness, B. subtilis 168 [2]
Conditions	partner 0.002 µg/mL	partner 0.0039 µg/mL	partner 0.0078 µg/mL	partner 0.0312 µg/mL	partner 0.0625 µg/mL	partner 0.125 µg/mL
first compound 0.25 µg/mL	0.96	0.945	0.969	0.0317	0.0311	0.0281
first compound 0.5 µg/mL	0.848	0.808	0.862	0.0211	0.0396	0.0302
first compound 1 µg/mL	–	–	–	0.0198	0.0226	0.0241

fitness, B. subtilis 168 [2], one replicate
Conditions	first compound 0.5 µg/mL	first compound 1 µg/mL	first compound 2 µg/mL
partner 0.001 µg/mL	0.925	0.906	0.209
partner 0.002 µg/mL	–	–	0.029
partner 0.0039 µg/mL	–	–	0.0299

CC[C@H]1OC(=O)[C@H](C)[C@@H](O[C@H]2C[C@@](C)(OC)[C@@H](O)[C@H](C)O2)[C@H](C)[C@@H](O[C@@H]2O[C@H](C)C[C@H](N(C)C)[C@H]2O)[C@](C)(O)C[C@@H](C)CN(C)[C@H](C)[C@@H](O)[C@]1(C)O [Azithromycin] + C[C@H]1c2cccc(O)c2C(=O)C2=C(O)[C@]3(O)C(=O)C(C(N)=O)=C(O)[C@@H](N(C)C)[C@@H]3[C@@H](O)[C@@H]21 [Doxycycline]
Conditions	Bliss interaction score
B. subtilis 168 [1]	-0.362
S. aureus DSM 20231	-0.261
S. aureus Newman	-0.153
S. pneumoniae D39V	-0.139

Conditions	fitness
B. subtilis 168 [2], first compound 0.25 µg/mL, partner 0.02 µg/mL	0.816

B. subtilis 168 [2], first compound 2 µg/mL, one replicate
Conditions	fitness
partner 0.02 µg/mL	0.0856
partner 0.04 µg/mL	0.0565
partner 0.08 µg/mL	0.115

CC1=C(C(=O)O)N2C(=O)[C@@H](NC(=O)[C@H](N)c3ccccc3)[C@H]2SC1 [Cephalexin] + CO[C@@H]1[C@@H](OC(N)=O)[C@@H](O)[C@H](Oc2ccc3c(O)c(NC(=O)c4ccc(O)c(CC=C(C)C)c4)c(=O)oc3c2C)OC1(C)C [Novobiocin]
Conditions	Bliss interaction score
B. subtilis 168 [1]	0.0738
S. aureus DSM 20231	0.0648
S. aureus Newman	0.0794
S. pneumoniae D39V	-0.0986

fitness, B. subtilis 168 [2]
Conditions	first compound 0.125 µg/mL	first compound 0.25 µg/mL	first compound 0.5 µg/mL
partner 0.0125 µg/mL	0.97	0.978	0.98
partner 0.025 µg/mL	0.918	0.936	0.93
partner 0.05 µg/mL	0.984	0.972	0.97

fitness, B. subtilis 168 [2], one replicate
Conditions	first compound 0.25 µg/mL	first compound 0.5 µg/mL	first compound 1 µg/mL
partner 0.125 µg/mL	0.95	0.839	0.946
partner 0.25 µg/mL	0.857	0.866	0.926
partner 0.5 µg/mL	0.603	0.49	0.593

CC1=C(C(=O)O)N2C(=O)[C@@H](NC(=O)[C@H](N)c3ccccc3)[C@H]2SC1 [Cephalexin] + COc1cc(Cc2cnc(N)nc2N)cc(OC)c1OC [Trimethoprim]
Conditions	Bliss interaction score
B. subtilis 168 [1]	0.113
S. aureus DSM 20231	-0.058
S. aureus Newman	-0.0582
S. pneumoniae D39V	0.0759

fitness, B. subtilis 168 [2]
Conditions	first compound 0.125 µg/mL	first compound 0.25 µg/mL	first compound 0.5 µg/mL	first compound 1 µg/mL
partner 0.25 µg/mL	–	0.685	–	0.699
partner 0.5 µg/mL	0.445	0.465	0.517	0.528

fitness, B. subtilis 168 [2], one replicate
Conditions	partner 0.1 µg/mL	partner 0.125 µg/mL	partner 0.2 µg/mL	partner 0.4 µg/mL	partner 1 µg/mL	partner 2 µg/mL
first compound 0.125 µg/mL	–	–	–	–	0.48	0.501
first compound 0.25 µg/mL	0.915	0.749	0.791	0.533	0.402	0.418
first compound 0.5 µg/mL	0.884	0.758	0.809	0.565	0.372	0.509
first compound 1 µg/mL	0.879	0.759	0.86	0.572	–	–
